Test results reported in paper PMC8228365, “Degradation Products of Tryptophan in Cell Culture Media: Contribution to Color and Toxicity” (International Journal of Molecular Sciences, 2021).
Like-named read-outs stand apart in the source and are kept apart here. One block for each compound: values may come before it.

What was measured:
CHOK1 GS cells = test: CellTiter-Glo cytotoxicity assay in CHOK1 GS cell line; format: cell-based, Chinese hamster; settings: Cricetulus griseus
Protocol: To assay the potential toxicity induced in the CHO cell culture by the Trp degradation products found in this study, a cytotoxicity assay CellTiter-Glo® Luminescent Cell Viability Assay (Cat #G7572, Promega, Madison, WI, USA) was used, following the manufacturer’s instructions. Briefly, the cells were seeded with 25,000 viable cells per cavity of a 96-well opaque white cell culture plate (Thermo Fisher, Waltham, MA, USA) in 80 µL of a pre-warmed medium. […] A DMSO control was added in the same concentration range as the tryptophan degradation compounds were diluted.

CHOK1 cells = test: CellTiter-Glo cytotoxicity assay in CHOK1 cell line; format: cell-based, Chinese hamster; settings: Cricetulus griseus
Protocol: (§1) To assay the potential toxicity induced in the CHO cell culture by the Trp degradation products found in this study, a cytotoxicity assay CellTiter-Glo® Luminescent Cell Viability Assay (Cat #G7572, Promega, Madison, WI, USA) was used, following the manufacturer’s instructions. Briefly, the cells were seeded with 25,000 viable cells per cavity of a 96-well opaque white cell culture plate (Thermo Fisher, Waltham, MA, USA) in 80 µL of a pre-warmed medium. Tryptophan degradation compounds were added in triplicates to the cells, ranging from 1 mM to 46 nM. A DMSO control was added in the same concentration range as the tryptophan degradation compounds were diluted. The dose response curves were fitted with a 4PL model by GraphPad Prism v.7 (GraphPad Software, San Diego, CA, USA) after luminescence readout with an EnVision 2104 Multilabel Reader (Perkin Elmer, Waltham, MA, USA).

CHOZN 6 cells = test: CellTiter-Glo cytotoxicity assay in CHOZN 6 cell line; format: cell-based, Chinese hamster; settings: Cricetulus griseus, read-out: [GI50] CHOZN 6
Protocol: as §1

CHOZN 10 cells = test: CellTiter-Glo cytotoxicity assay in CHOZN 10 cell line; format: cell-based, Chinese hamster; settings: Cricetulus griseus, read-out: [GI50] CHOZN 10
Protocol: as §1

[1] = Color measurement (ΔE*) of standards spiked into water; format: physicochemical; settings: theoretical 500 µM, 1% DMSO, ΔE* > 1 deemed significant
Protocol: (§2) Compounds were dissolved in DMSO at 50 mM and then spiked into the solutions to achieve a final compound concentration of 500µM. Some of the tested compounds formed a precipitate immediately upon spiking of the DMSO solution. As the precipitates in solution can interfere with the absorption measurement, each sample was centrifuged prior to taking absorption measurements, meaning that the final concentrations were not all at 500 µM. […] In stability experiments, eight of these nine compounds (all except 46) were present in at least one condition in the degraded water samples, and four of these nine compounds (28, 31, 38, and 46) were present in the degraded feed.
(§3) Absorbance measurements were taken in the range of 380 nm to 780 nm (20 nm steps) of 100 µL of the samples in four technical replicates (Envision, Perkin Elmer, Waltham, MA, USA). From the absorbance values, the change in color was calculated using L*a*b* and ΔE* values according to DIN 5033-3 and DIN 6174 norms. The CIE 1931 standard observer (2°) and the D65 illuminant were selected.
(§4) Chemical standards were prepared as 50 mM stocks in DMSO and then spiked into the aqueous solutions (either water or feed) to achieve a theoretical compound concentration of 500 µM (1% DMSO). The solutions were centrifuged, and the absorbance measurements of these solutions was measured and converted to ΔE* values as described above. The control condition was pure DMSO (1% v/v).

[2] = Color measurement (ΔE*) of standards spiked into feed; format: physicochemical; settings: theoretical 500 µM, 1% DMSO, ΔE* > 1 deemed significant
Protocol: as §2, §3, §4

CHO cells [3] = test: CHO cell toxicity summarised across the four CHO cell lines; format: cell-based, Chinese hamster; settings: Cricetulus griseus; across all four CHO cell lines; read-out: GI50 across all cell lines
Protocol: as §1

cancer cell lines = test system: cancer cell lines; set-up: method as in PMID 22047643; settings: cited from earlier work
CHO cells [4] = settings: cited from earlier work
[5] = Degradation of tryptophan in water under stressed conditions; format: physicochemical; settings: 10 mM Trp in water pH 7, 70 °C, after 24 days
Protocol: For the Trp solutions, 10 mM Trp solutions were prepared in water with a pH adjustment to pH 7.0 ± 0.3 using NaOH(aq.) and sterile filtered with Steriflip® filter units (Merck, Darmstadt, Germany). For H2O2 exposure testing, the solutions were spiked with hydrogen peroxide (30%, 8.82 M) to 0, 10, 25, 50, or 100 mM, and stored for 4h at RT (~19–23 °C), light-protected. For the UV exposure effects, the solutions were stored for 4 h under a UV-lamp set to an intensity of 540 V (UV-A, -B and -C radiation). Samples tested for temperature effects were stored light-protected for 24 days at 4 °C, room temperature (RT, i.e., ~19–23 °C), 37 °C, or 70 °C. Feed solutions were sterile-filtered as above and stored for 98 days at 4 °C, RT (~19–23 °C) or 37 °C. The samples were either stored light-protected or exposed to laboratory fluorescent lighting with partial exposure to glass-filtered daylight (light-exposed). For testing the a-ketoglutaric acid effects in feed, dry powder feed was reconstituted with a-ketoglutaric acid, pH adjusted to 7.0 ± 0.3 with NaOH (aq.), filtered as above, and stored light-protected at RT (~19–23 °C) or 37 °C for 98 days. Ammonia was quantified using Cedex Bio HT (Roche, Mannheim, Germany). Aliquots were frozen at −20 °C for subsequent amino acid analysis and LC-MS.
Amino acid analysis was performed using a pre-column derivatization using the AccQ Tag® Ultra Reagent kit. […]

[6] = CHO-K1, CHOK1 GS cell line, 1 mM to 46 nM, 4PL fit, read-out: [GI50] CHOK1 GS
[7] = CHO-K1, CHOK1 cell line, 1 mM to 46 nM, 4PL fit, read-out: [GI50] CHOK1
[8] = CHOZN 6 cell line, 1 mM to 46 nM, 4PL fit
[9] = CHOZN 10 cell line, 1 mM to 46 nM, 4PL fit
[10] = CHO-K1, read-out: [GI50] CHOK1 GS

Compound: Nc1ccccc1C(=O)CC(N)C(=O)O (centres unmarked) [Compound 1, Kynurenine]
- GI50 (CHOK1 GS cells; [6]): > 1000 µM

Compound: NC(CC(=O)c1ccccc1NC=O)C(=O)O (centres unmarked) [Compound 2, N-Formylkynurenine]
- GI50 (CHOK1 GS cells; [6]): > 1000 µM

Compound: NC(CC1C(=O)Nc2ccccc21)C(=O)O (centres unmarked) [Compound 3, 2-amino-3-(2-oxo-2,3-dihydro-1h-indol-3-yl)propanic acid (Oia)]
- GI50 (CHOK1 GS cells; [6]): > 1000 µM

Compound: NC(CC1(O)C(=O)Nc2ccccc21)C(=O)O [Compound 4, 3-(3-Hydroxy-2-oxo-2,3-dihydro-1H-indol-3-yl)-L-alanine (diOia)]
- GI50 (CHOK1 GS cells; [6]): > 1000 µM

- Color change as measured by ΔE* in water [1]: significant color change
- Color change as measured by ΔE* in feed [2]: significant color change
Compound: O=C(O)c1nccc2c1[nH]c1ccccc12 [Compound 5, 9H-Pyrido[3,4-b]indole-1-carboxylic acid]
- GI50 (CHOK1 GS cells; [6]): 118 µM
- GI50 (CHOK1 cells; [7]): 158 µM
- GI50 (CHOZN 6 cells; [8]): 76.7 µM
- GI50 (CHOZN 10 cells; [9]): 75.5 µM

Compound: O=C(O)C1CC2(O)c3ccccc3NC2N1 (centres unmarked) [Compound 6, 1,2,3,3a,8,8a-Hexahydro-3a-hydroxypyrrolo[2,3-b]indole-2-carboxylic acid (PIC)]
- GI50 (CHOK1 GS cells; [6]): > 1000 µM

Compound: c1ccc2ncccc2c1 [Compound 8, Quinoline]
- GI50 (CHOK1 GS cells; [10]): > 1000 µM

Compound: NCCc1c(O)[nH]c2ccccc12 [Compound 9]
- GI50 (CHOK1 GS cells; [6]): > 1000 µM

Compound: OC12CCNC1Nc1ccccc12 (centres unmarked) [Compound 10]
- GI50 (CHOK1 GS cells; [6]): > 1000 µM

Compound: NCCc1c[nH]c2ccccc12 [Compound 11, Tryptamine]
- GI50 (CHOK1 GS cells; [10]): > 1000 µM

Compound: O=CCc1c[nH]c2ccccc12 [Compound 12, Indole-3-acetaldehyde]
- GI50 (CHOK1 GS cells; [6]): 64.5 µM
- GI50 (CHOK1 cells; [7]): 116 µM
- GI50 (CHOZN 6 cells; [8]): 54.5 µM
- GI50 (CHOZN 10 cells; [9]): 92.3 µM

Compound: N[C@@H](Cc1c(Cc2c[nH]c3ccccc23)[nH]c2ccccc12)C(=O)O [Compound 14, 2-(3-Indolylmethyl)-L-tryptophan]
- GI50 (CHOK1 GS cells; [6]): > 1000 µM

- Color change as measured by ΔE* in water [1]: significant color change
Compound: O=C(O)c1cc2c([nH]c3ccccc32)c(-c2ccccc2)n1 [Compound 16]
- GI50 (CHOK1 GS cells; [6]): 76.6 µM
- GI50 (CHOK1 cells; [7]): 74.9 µM
- GI50 (CHOZN 6 cells; [8]): 88.5 µM
- GI50 (CHOZN 10 cells; [9]): 57.6 µM

Compound: O=Cc1c[nH]c2ccccc12 [Compound 18, Indole-3-carboxaldehyde]
- GI50 (CHOK1 GS cells; [6]): 295 µM
- GI50 (CHOK1 cells; [7]): 226 µM
- GI50 (CHOZN 6 cells; [8]): 236 µM
- GI50 (CHOZN 10 cells; [9]): 258 µM
- GI50 (CHO cells [3]): > 226 µM

Compound: O=C1Cc2ccccc2N1 [Compound 19, 2-Oxindole]
- GI50 (CHOK1 GS cells; [6]): > 1000 µM

Compound: Oc1ccnc2ccccc12 [Compound 20, 4-Hydroxyquinoline]
- GI50 (CHOK1 GS cells; [10]): > 1000 µM

Compound: O=C(O)c1ccnc2ccccc12 [Compound 21, 4-Quinolinecarboxylic acid]
- GI50 (CHOK1 GS cells; [6]): > 1000 µM

Compound: CC1NC(C(=O)O)Cc2c1[nH]c1ccccc21 (stereo not drawn) [Compound 23, 1-Methyl-2,3,4,9-tetrahydro-1H-beta-carboline-3-carboxylic acid]
- GI50 (CHOK1 GS cells; [6]): > 1000 µM

- Color change as measured by ΔE* in water [1]: significant color change
- Color change as measured by ΔE* in feed [2]: significant color change
Compound: O=C(O)C1Cc2c([nH]c3ccccc23)C=N1 (centres unmarked) [Compound 24]
- GI50 (CHOK1 GS cells; [6]): 343 µM
- GI50 (CHOK1 cells; [7]): 312 µM
- GI50 (CHOZN 6 cells; [8]): 314 µM
- GI50 (CHOZN 10 cells; [9]): 306 µM
- GI50 (CHO cells [3]): > 226 µM

Compound: CC1NC(C(=O)O)CC12C(=O)Nc1ccccc12 (centres unmarked) [Compound 25]
- GI50 (CHOK1 GS cells; [6]): > 1000 µM

Compound: c1ccc2c(c1)[nH]c1cnccc12 [Compound 27, Norharmane]
- GI50 (CHOK1 GS cells; [10]): 127 µM
- GI50 (CHOK1 cells; CHO-K1, read-out: [GI50] CHOK1): 74.8 µM
- GI50 (CHOZN 6 cells): 98.5 µM
- GI50 (CHOZN 10 cells): 64.5 µM

Compound: Cc1nccc2c1[nH]c1ccccc12 [Compound 28, Harmane]
- GI50 (CHOK1 GS cells; [10]): 170 µM
- GI50 (CHOK1 cells; CHO-K1, read-out: [GI50] CHOK1): 74.9 µM
- GI50 (CHOZN 6 cells): 65.5 µM
- GI50 (CHOZN 10 cells): 77.3 µM
- Color change as measured by ΔE* in feed [2]: significant color change

Compound: OCc1nccc2c1[nH]c1ccccc12 [Compound 29]
- GI50 (CHOK1 GS cells; [6]): 157 µM
- GI50 (CHOK1 cells; [7]): 389 µM
- GI50 (CHOZN 6 cells; [8]): > 1000 µM
- GI50 (CHOZN 10 cells; [9]): 347 µM

- Color change as measured by ΔE* in feed [2]: significant color change
Compound: O=C(O)c1cc2c([nH]c3ccccc32)c(C(=O)c2c[nH]c3ccccc23)n1 [Compound 31, 1-(1H-Indol-3-ylcarbonyl)-9H-pyrido[3,4-b]indole-3-carboxylic acid]
- GI50 (CHOK1 GS cells; [6]): 34.6 µM
- GI50 (CHOK1 cells; [7]): 21.6 µM
- GI50 (CHOZN 6 cells; [8]): 13 µM
- GI50 (CHOZN 10 cells; [9]): 14.4 µM
- GI50 (CHO cells [3]): 10 to 22 µM
- toxicity against some cancer cell lines (cancer cell lines): demonstrated toxicity against some cancer cell lines

Compound: O=C(c1c[nH]c2ccccc12)c1nccc2c1[nH]c1ccccc12 [Compound 32, 1H-Indol-3-yl-9H-pyrido[3,4-b]indol-1-ylmethanone]
- GI50 (CHOK1 GS cells; [6]): > 1000 µM
- toxicity against some cancer cell lines (cancer cell lines): demonstrated toxicity against some cancer cell lines

- Color change as measured by ΔE* in water [1]: significant color change
Compound: O=C(O)c1cc2c([nH]c3ccccc32)c(-c2ccnc3ccccc23)n1 [Compound 38]
- GI50 (CHOK1 GS cells; [6]): 118 µM
- GI50 (CHOK1 cells; [7]): 124 µM
- GI50 (CHOZN 6 cells; [8]): 98.9 µM
- GI50 (CHOZN 10 cells; [9]): 114 µM

Compound: Cc1ncc(CO)c(C2NC(C(=O)O)Cc3c2[nH]c2ccccc32)c1O (centres unmarked) [Compound 42]
- GI50 (CHOK1 GS cells; [6]): > 1000 µM

Compound: Cc1nc(C(=O)O)cc2c1[nH]c1ccccc12 [Compound 45]
- GI50 (CHOK1 GS cells; [6]): > 1000 µM

Compound: NC(=O)Cc1c[nH]c2ccccc12 [Compound 47, 3-Indoleacetamide]
- GI50 (CHOK1 GS cells; [6]): > 1000 µM

Compound: CC(C)CC1NC(C(=O)O)Cc2c1[nH]c1ccccc21 (centres unmarked) [Compound 56, 2,3,4,9-Tetrahydro-1-(2-methylpropyl)-1H-pyrido[3,4-b]indole-3-carboxylic acid]
- GI50 (CHOK1 GS cells; [6]): > 1000 µM

Compound: CC(=O)c1nccc2c1[nH]c1ccccc12 [Compound 62, 1-Acetyl-β-carboline]
- GI50 (CHOK1 GS cells; [6]): > 1000 µM

Compound: O=C(O)CCC(=O)O [Compound 66, succinic acid]
- toxicity to CHO cells (CHO cells [4]): not toxic to CHO cells

Compound: N[C@@H](Cc1c[nH]c2ccccc12)C(=O)O [Trp, L-Tryptophan]
- Trp total loss [5]: 42%

Compound: O=C(O)CCC(=O)C(=O)O [aKG, a-Ketoglutaric acid]
- effect on the CHO cell culture (CHO cells [4]; up to 50 mM): no detrimental effect
